From patent US20230255935A1, “ANTI-VIRAL COMPOUNDS AND METHODS FOR SCREENING SAME AND TREATING VIRAL INFECTIONS” (priority 2020, published 2023)

Target: full-length MERS-CoV N protein (Middle East respiratory syndrome-related coronavirus, UniProt K9N4V7)

Structure (SMILES): CN(C)Cc1c[nH]c2ccc(OCc3ccccc3)cc12 [PSX-01, 5-benzyloxygramine]
- radius of gyration (Rg) of N protein: 65
